ChEMBL document CHEMBL2074189, “Functional expression cloning and characterization of the hepatocyte Na+/bile acid cotransport system” (Proc Natl Acad Sci U S A, 1991)

How the values were obtained:
Type in all cases: functional, cell-based
Conditions in all cases: oocyte
[1] = target: T1, Hepatic sodium/bile acid cotransporter (Rattus norvegicus, UniProt P26435); assay: TP_TRANSPORTER: inhibition of Taurocholate uptake (Taurochorate: 17 uM, BSP: 100 uM) in Xenopus laevis oocytes
T1 sequence (P26435 whole entry): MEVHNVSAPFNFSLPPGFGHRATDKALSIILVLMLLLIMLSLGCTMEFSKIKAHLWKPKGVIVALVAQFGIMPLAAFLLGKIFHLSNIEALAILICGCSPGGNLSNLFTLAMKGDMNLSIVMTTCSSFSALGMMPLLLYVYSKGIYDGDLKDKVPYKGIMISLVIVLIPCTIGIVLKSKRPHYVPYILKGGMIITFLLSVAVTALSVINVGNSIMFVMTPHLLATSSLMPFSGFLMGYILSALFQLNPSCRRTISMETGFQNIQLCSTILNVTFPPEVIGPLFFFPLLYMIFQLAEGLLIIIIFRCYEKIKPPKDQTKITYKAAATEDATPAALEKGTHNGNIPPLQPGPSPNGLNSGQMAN

[2] = target: T1, Hepatic sodium/bile acid cotransporter; assay: TP_TRANSPORTER: inhibition of Taurocholate uptake (Taurochorate: 17 uM, Probenecid: 1000 uM) in Xenopus laevis oocytes
[3] = target: T1, Hepatic sodium/bile acid cotransporter; assay: TP_TRANSPORTER: inhibition of Taurocholate uptake (Taurochorate: 17 uM, Bumetanide: 500 uM) in Xenopus laevis oocytes
[4] = target: T1, Hepatic sodium/bile acid cotransporter; assay: TP_TRANSPORTER: inhibition of Taurocholate uptake (Taurochorate: 17 uM, TCDC: 100 uM) in Xenopus laevis oocytes

O=C1OC(c2ccc(O)c(S(=O)(=O)[O-])c2)(c2ccc(O)c(S(=O)(=O)[O-])c2)c2c(Br)c(Br)c(Br)c(Br)c21.[Na+].[Na+] [SULFOBROMOPHTHALEIN SODIUM]
Activity [1]: inhibitor [(at a rough estimate) 25 % of control]

CCCN(CCC)S(=O)(=O)c1ccc(C(=O)O)cc1 [PROBENECID]
Activity [2]: inhibitor [(at a rough estimate) 70 % of control]

CCCCNc1cc(C(=O)O)cc(S(N)(=O)=O)c1Oc1ccccc1 [BUMETANIDE]
Activity [3]: inhibitor [(at a rough estimate) 50 % of control]

C[C@H](CCC(=O)NCCS(=O)(=O)O)[C@H]1CC[C@H]2[C@@H]3[C@H](O)C[C@@H]4C[C@H](O)CC[C@]4(C)[C@H]3CC[C@]12C [TAUROCHENODEOXYCHOLATE]
Activity [4]: inhibitor [(at a rough estimate) 15 % of control]
